From US20190032115A1, “GENETIC TESTING FOR […] GRAM-NEGATIVE PROTEUS AGAINST ANTIMICROBIAL AGENTS” (Ares Genetics GmbH, priority 2015, published 2019)

Tested on: Proteus strains (583 clinical isolates)
Test: Antimicrobial susceptibility testing (AST) on frozen reference panels, minimal inhibitory concentration (MIC) read visually
Assay type: cell-based, Proteus mirabilis, Proteus penneri and Proteus vulgaris
Details: classical AST
Experimental: The inventors selected 583 Proteus strains from the microbiology strain collection at Siemens Healthcare Diagnostics (West Sacramento, Calif.) for susceptibility testing and whole genome sequencing.
Frozen reference AST panels were prepared following Clinical Laboratory Standards Institute (CLSI) recommendations. The following antimicrobial agents (with μg/ml concentrations shown in parentheses) were included in the panels: Amoxicillin/K Clavulanate (0.5/0.25-64/32), Ampicillin (0.25-128), Ampicillin/Sulbactam (0.5/0.25-64/32), Aztreonam (0.25-64), Cefazolin (0.5-32), Cefepime (0.25-64), Cefotaxime (0.25-128), Ceftazidime (0.25-64), Ceftriaxone (0.25-128), Cefuroxime (1-64), Cephalothin (1-64), Ciprofloxacin (0.015-8), Ertepenem (0.12-32), Gentamicin (0.12-32), Imipenem (0.25-32), Levofloxacin (0.25-16), Meropenem (0.12-32), Piperacillin/Tazobactam (0.25/4-256/4), Tetracycline (0.5-64), Tobramycin (0.12-32), and Trimethoprim/Sulfamethoxazole (0.25/4.7-32/608). […]
Isolates were cultured on trypticase soy agar with 5% sheep blood (BBL, Cockeysville, Md.) and incubated in ambient air at 35±1° C. for 18-24 h. […] Panel results were read visually, and minimal inhibitory concentrations (MIC) were determined.
Proteus strains to be tested were seeded on agar plates and incubated under growth conditions for 24 hours. […] Bacterial growth was determined by observing turbidity. […]

CC1(C)S[C@@H]2[C@H](NC(=O)[C@H](N)c3ccccc3)C(=O)N2[C@H]1C(=O)O [ampicillin, Ampicillin]
resistance of Proteus observed against the agent: high resistance
